Test results published in ChEMBL document CHEMBL5104227, “Synthesis and evaluation of radiolabeled porphyrin derivatives for cancer diagnoses and their nonradioactive counterparts for photodynamic therapy” (RSC Med Chem, 2022).
The source made the active and inactive calls. The rule behind the calls is not given here.

Legend:
Colon 26 [1] = test: Dark toxicity against […] Colon 26 cells assessed as inhibition of cell growth incubated for 24 hrs by MTT assay; format: functional, cell-based; settings: Mus musculus, Colon 26, 24 h
Colon 26 [2] = test: Photodynamic therapeutic activity against […] Colon 26 cells /c xenografted in BALB/c mouse assessed as tumor growth inhibition at 13.6 umol/kg, iv pretreated for 24 hrs followed by 30 mins irradiation with 50 W LED light and measured upto 7 days; format: functional, organism-based; settings: dose 13.6 µmol/kg, time <= 7.0 day, tested as the 125I-labelled form
Colon 26 [3] = test: Phototoxicity against […] Colon 26 cells assessed as inhibition of cell growth preincubated for 24 hrs followed by compound washout with replacement of fresh medium and irradiation with 50 W LED light by MTT assay; format: functional, cell-based; settings: Mus musculus, Colon 26, light or radiation study
[4] = Induction of singlet oxygen production in DMSO assessed as singlet oxygen quantum yield by measuring the photooxidation of 9,10-dimethylanthracene at 5 uM irradiated with 50 W LED light; format: functional
[5] = Biodistribution in Tumor/muscle of BALB/c mouse xenografted with […] Colon 26 cells at 37 kBq, iv measured at 48 hrs by auto-well gamma counter analysis; format: ADME, organism-based; settings: in vivo
[6] = Biodistribution in Tumor/blood of BALB/c mouse xenografted with […] Colon 26 cells at 37 kBq, iv by auto-well gamma counter analysis; format: ADME, organism-based; settings: in vivo, 96 h, TDE = time-dependent effect
[7] = Biodistribution in lung of BALB/c mouse xenografted with […] Colon 26 cells at 37 kBq, iv measured upto 96 hrs by auto-well gamma counter analysis; format: ADME, organism-based; settings: in vivo
[8] = Biodistribution in liver of BALB/c mouse xenografted with […] Colon 26 cells at 37 kBq, iv measured upto 96 hrs by auto-well gamma counter analysis; format: ADME, organism-based; settings: in vivo
[9] = Biodistribution in spleen of BALB/c mouse xenografted with […] Colon 26 cells at 37 kBq, iv measured upto 96 hrs by auto-well gamma counter analysis; format: ADME, organism-based; settings: in vivo
[10] = Octanol-water partition coefficient, logP of the compound at pH 7.4 incubated for 10 mins by shake-flask method; format: physicochemical
[11] = Drug uptake in […] Colon 26 cells measured per mg of protein after 3 hrs by auto-well gamma counter analysis; format: ADME, cell-based; settings: mouse, colon 26, 3 h
[12] = Toxicity in BALB/c mouse xenografted with […] Colon 26 cells assessed as weight loss at 13.6 umol/kg, iv pretreated for 24 hrs followed by 30 mins irradiation with 50 W LED light and measured upto 7 days; format: organism-based; settings: in vivo, 168 h, dose 13.6 µmol/kg, time < 7 day
[13] = Drug uptake in Tumor of BALB/c mouse xenografted with […] Colon 26 cells at 37 kBq, iv measured at 48 hrs by auto-well gamma counter analysis; format: ADME, organism-based, Neoplasm; settings: in vivo

SMILES | IC50 (Colon 26 [1]) [µM] | Activity (Colon 26 [2]) | IC50 (Colon 26 [3]) [µM] | Activity [4] | Drug uptake [5] | Drug uptake [6] | Drug uptake [7] | Drug uptake [8] | Drug uptake [9] | logD at 10 min [10] | Drug uptake [11] [%] | Activity [12] | Drug uptake [13] [% ID/g]
Oc1ccc(-c2c3nc(c(-c4ccccc4)c4ccc([nH]4)c(-c4ccccc4)c4nc(c(-c5ccccc5)c5ccc2[nH]5)C=C4)C=C3)cc1I | > 50 | Active | 8.77 | 0.65 | – | – | – | – | – | – | – | – | –
C1=Cc2nc1c(-c1ccccc1)c1ccc([nH]1)c(-c1ccccc1)c1nc(c(-c3ccccc3)c3ccc([nH]3)c2-c2ccccc2)C=C1 | – | – | – | 0.52 | – | – | – | – | – | – | – | – | –
O=c1[nH]cc(F)c(=O)[nH]1 [FLUOROURACIL] | 3.87 | – | 4.1 | – | – | – | – | – | – | – | – | – | –
O=C(N[C@@H](Cc1ccc(O)c([125I])c1)C(=O)O)c1ccc(-c2c3nc(c(-c4ccccc4)c4ccc([nH]4)c(-c4ccccc4)c4nc(c(-c5ccccc5)c5ccc2[nH]5)C=C4)C=C3)cc1 | – | – | – | – | Active | Tde | Active | Active | Active | 2.55 | 52.9 | Non-Toxic | 8.7
O=C(N[C@@H](Cc1ccc(O)c(I)c1)C(=O)O)c1ccc(-c2c3nc(c(-c4ccccc4)c4ccc([nH]4)c(-c4ccccc4)c4nc(c(-c5ccccc5)c5ccc2[nH]5)C=C4)C=C3)cc1 | > 100 | Active | 5.28 | 0.51 | – | – | – | – | – | – | – | – | –
Oc1ccc(-c2c3nc(c(-c4ccccc4)c4ccc([nH]4)c(-c4ccccc4)c4nc(c(-c5ccccc5)c5ccc2[nH]5)C=C4)C=C3)cc1[125I] | – | – | – | – | Active | Tde | Active | Active | Active | 2.96 | 54 | Non-Toxic | 18
